From PubChem BioAssay (NCI) come the findings set out here.

Molecules are shown by their SMILES.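 48-hour exposure; five concentrations; linearly interpolated endpoints. GI50 marks 50% less growth. TGI denotes the concentration required for complete inhibition of growth.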

What all share (assay): inhibition of tumour cell growth, NCI panel, 48 h
Assay [1] has as its system 786-0 renal.
Assay [2] deals with CCRF-CEM leukemia.
For assay [3], the system named is HCC-2998 colon.
The test system of assay [4] is HCT-116 colon.
The subject of assay [5] is HOP-62 NSCLC.
Assay [6] concerns HT29 colon.
Assay [7] has as its system MDA-MB-231 breast.
Assay [8] concerns SNB-75 CNS.
In assay [9] the test system is UACC-257 melanoma.
Assay [10] concerns BT-549 breast.

As to `Cc1noc(C)c1N=Nc1ccc2nonc2c1N`, the TGI in assay [1], in assay [2], in assay [3], in assay [4], in assay [5] and in assay [6] was more than 100 µM throughout. Moreover, the TGI in assay [7] was more than 100 µM; in [8], 42.2 µM; in assay [9], more than 100 µM.
For `O=C(Cc1ccccc1)NN1C(=O)C(Cl)C1c1ccccc1` (configuration not stated), the TGI was more than 100 µM in assay [1]; 71.4 µM in assay [2]; more than 100 µM in [3]; more than 100 µM in assay [4]; more than 100 µM in [5]; more than 100 µM in [6]. The TGI in assay [8] and in [9] was more than 100 µM throughout.
`Oc1cccc2nc3cc(CN4CCOCC4)c(CN4CCOCC4)cc3nc12`: the TGI in assay [1], in assay [2], in assay [3], in assay [4], in [5] and in assay [6] was more than 100 µM in each case. Further, the TGI in assay [8] and in assay [9] was more than 100 µM each time.
On to `CC[S+](C)c1ccc(-c2c3nc(c(-c4ccc([S+](C)CC)cc4)c4ccc([nH]4)c(-c4ccc([S+](C)CC)cc4)c4nc(c(-c5ccc([S+](C)CC)cc5)c5ccc2[nH]5)C=C4)C=C3)cc1` (configuration not stated), for which the TGI in [1] is more than 100 µM; in assay [2], more than 100 µM; in assay [4], more than 100 µM; in assay [5] it was 93.5 µM; in [6], more than 100 µM; in assay [8], more than 100 µM. The TGI in assay [9] was more than 100 µM.
Take `O=C(/C=C\c1ccc(OCCCCCC[P+](c2ccccc2)(c2ccccc2)c2ccccc2)cc1)c1ccc2c(c1)OCCO2`: the GI50 is 1.22 µM in assay [2], 1.01 µM in assay [3], 0.912 µM in [6] and 0.623 µM in assay [8]. In addition, the TGI was found to be 6.15 µM in assay [2], 2.2 µM in assay [3], 3.24 µM in assay [6] and 2.72 µM in assay [8].
Consider `CCc1c(-c2coc(CC/C(C)=C/c3ccccc3)n2)oc(OC)c(C)c1=O`, for which the TGI is more than 55.4 µM in [1]; more than 100 µM in assay [2]; more than 100 µM in [3]; more than 87.8 µM in assay [4]; more than 100 µM in assay [5]; more than 31.6 µM in [6]. Moreover, the TGI in assay [8] and in assay [9] was more than 100 µM in each case.
As for `CCOC(=O)CCc1c(C)c2c(O)cc(O)cc2oc1=O`, the TGI in [2], in assay [3], in assay [4], in [5], in assay [6] and in assay [8] was more than 100 µM each time. In [9], this compound yielded a TGI of more than 100 µM.
With `CNC(=O)C(NC(=O)[C@H](CC(C)C)NC(=O)[C@@H](S)CCN1C(=O)N(C)C(C)(C)C1=O)C(C)(C)C` (some centres not stated), the TGI in assay [1], in assay [10], in assay [3], in assay [4], in assay [5] and in assay [6] was more than 100 µM each time. The compound also displayed a TGI in assay [9] of more than 100 µM.
Consider `[N-]=[N+]=NC(c1cn(C2CC(O)C(CO)O2)c(=O)[nH]c1=O)C(I)I` (configuration not stated), for which the TGI in [1], in [2], in assay [3], in assay [4], in [5] and in assay [6] was more than 100 µM throughout. In addition, the TGI in assay [9] was more than 100 µM.
For `OC1NC2CC3NC(O)C(O)NC3CC2NC1O` (configuration not stated), the TGI in assay [1], in assay [2], in assay [3], in assay [4], in assay [5] and in assay [6] was more than 100 µM in each case. Further, the TGI in assay [7], in assay [8] and in [9] was more than 100 µM throughout.
As for `Cc1ccc(C(=O)/C=C/N2CCN(c3cccc(C(F)(F)F)c3)CC2)cc1`, the TGI in assay [1] was 34 µM; in assay [3], 25.5 µM; in [4] it was 30.6 µM; in assay [5], 37.4 µM; in [6], 35.8 µM; in assay [7], 33.4 µM. Moreover, the TGI in assay [8] was 34.7 µM; in assay [9], 32.5 µM.
With `CC1(C)N=C(/C(C#N)=[N+](/[O-])C(=O)c2ccccc2)C(C)(C)N1O`, the TGI in assay [1], in [2], in assay [3], in assay [4], in [5] and in assay [6] was more than 100 µM in each case. The TGI in assay [7], in assay [8] and in [9] was more than 100 µM throughout.
As for `Cc1ccc(-c2nc3n(c2/C=N\N=C(N)N)CCS3)cc1`, the TGI in [1] stood at 29.3 µM; in [2] it was 55.9 µM; in assay [3], 24.2 µM; in [4], 28.5 µM; in [5], 28.6 µM; in assay [6], 27.3 µM. The TGI in [7] was determined as 29.9 µM; in assay [8], 23.2 µM; in assay [9], 30.5 µM.
As for `COc1cc(OC)c(NC2=NCCO2)cc1Cl`, the TGI was 90 µM in assay [1]; more than 100 µM in [2]; 71.1 µM in [3]; 94.5 µM in assay [4]; more than 100 µM in [5]; 47.8 µM in assay [6]. The values for the TGI in assay [7], in [8] and in assay [9] were 64.5 µM, more than 100 µM and more than 100 µM, respectively.
Consider `O=C(OCc1c(-c2ccccc2)nn(-c2ccccc2)c1COC(=O)Oc1ccccc1)Oc1ccccc1`, for which the TGI in assay [1], in [2], in assay [3], in [4], in [5] and in [6] was more than 100 µM throughout. Moreover, the TGI in assay [7], in assay [8] and in assay [9] was more than 100 µM in each case.
